Laboratory results: patent publication US20090209552A1, “Organic Compounds” (Novartis AG, priority 2006, published 2009)

Assays:
human CRTh2 [1] = target: T1, human CRTh2 (Homo sapiens, UniProt Q9Y5Y4); assay: CRTH2 cAMP functional assay in CHO.K1-CRTh2 cells; format: cell-based; parameters: expressed in transfected cells; host or cells: CHO.K1 (CHO.K1-CRTh2), whole cells; settings: inhibition of PGD2-mediated attenuation of forskolin-induced cAMP accumulation in CHO.K1-CRTh2 cells
T1 sequence (Q9Y5Y4 1-395): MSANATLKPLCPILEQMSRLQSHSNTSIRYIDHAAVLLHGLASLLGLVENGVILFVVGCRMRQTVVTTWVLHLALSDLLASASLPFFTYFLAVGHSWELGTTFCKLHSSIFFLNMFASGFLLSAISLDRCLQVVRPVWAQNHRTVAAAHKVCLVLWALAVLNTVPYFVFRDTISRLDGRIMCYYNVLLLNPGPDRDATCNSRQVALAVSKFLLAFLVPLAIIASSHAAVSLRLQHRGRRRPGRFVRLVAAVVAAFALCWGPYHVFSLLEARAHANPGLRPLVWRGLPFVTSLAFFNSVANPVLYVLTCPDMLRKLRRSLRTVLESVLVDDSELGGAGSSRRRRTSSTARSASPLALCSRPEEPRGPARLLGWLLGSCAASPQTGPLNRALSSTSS
Protocol: where S is the concentration of radioligand and Kd is the dissociation constant. CRTH2 cAMP Functional Assay Protocol
This assay is conducted in CHO.K1-CRTh2 cells. cAMP is generated in the cell by stimulating cells with 5 μM forskolin, an adenylate cyclase activator. PGD2 is added to activate the CRTh2 receptor which results in the attenuation of the forskolin-induced cAMP accumulation. Potential CRTh2 antagonists are tested for their ability to inhibit the PGD2-mediated attenuation of the forskolin-induced cAMP accumulation in CHO.K1-CRTh2 cells.
For each concentration value on the dose-response curve, test compounds are prepared in assay stimulation buffer (HBSS, 5 mM HEPES, 10 μM IBMX±0.1% human serum albumin) containing DMSO (3% vol/vol) and 5 μL/well is added to an assay plate (384 well white optiplate).
CHO.K1-CRTh2 cultured in tissue culture flasks are washed with PBS and harvested with dissociation buffer. Cells are washed with PBS and re-suspended in stimulation buffer to a concentration of 0.4×10^6/mL and added to the assay plate (10 μL/well).
The assay plate is incubated at room temperature on a shaker for 15 minutes.
A mix of agonist (10 nM Prostaglandin D and 5 μM forskolin is prepared in assay stimulation buffer and added to the assay plate (5 μL/well).
In addition, a cAMP standard is serially diluted in assay stimulation buffer and added to separate empty wells on the assay plate (20 μL/well). The cAMP standard allows for the quantification of cAMP generated in CHO.K1-CRTH2 cells.
The assay plate is incubated at room temperature on a shaker for 60 minutes. […]
The assay plate is sealed with Topseal-S™ and incubated in the dark at room temperature on a shaker for 45 minutes. The plate is then counted using a Packard Fusion™ instrument. […]

human CRTh2 [2] = target: T1, human CRTh2; assay: Filtration binding assay ([3H]-PGD2 competition on CHO.K1-CRTh2 membranes); parameters: expressed in transfected cells; host or cells: CHO.K1 (CHO.K1-CRTh2), membranes; settings: [3H]-PGD2 2.5 nM, Cheng-Prussoff
Protocol: The binding of CRTh2 modulators is determined using membranes prepared from human CRTh2-expressing Chinese Hamster Ovary cells (CHO.K1-CRTh2). To produce cell membranes CHO.K1-CRTh2 cells cultured in roller bottles are harvested using cell dissociation buffer (Invitrogen). The cells are pelleted by centrifugation (167 g, 5 min). The cell pellet is incubated in hypotonic buffer (15 mM Tris-OH, 2 mM MgCl2, 0.3 mM EDTA, 1 mM EGTA, 1× Complete™ tablet) at 4° C. for 30 minutes. At 4° C. cells are homogenized using a Polytron®) (IKA Ultra Turrax T25) for 5 bursts of 1 second. The homogenate is centrifuged (Beckman Optima TM TL Ultracentrifuge, 48000 g, 30 minutes at 4° C.). The supernatant is discarded and the membrane pellet re-suspended in homogenisation buffer (75 mM Tris-OH, 12.5 mM MgCl2, 0.3 mM EDTA, 1 mM EGTA, 250 mM Sucrose, 1× Complete™ tablet. Membrane preparations are aliquoted and stored at […]. The protein content is estimated using Bradford Protein Assay Dye (Bio Rad).
The binding of [^3H]-PGD2 (157 Ci/mmol) to CHO.K1-CRTh2 membranes is determined in the absence (total binding) and presence (non-specific binding) of unlabelled PGD2 (1 μM). Subtraction of the cpm (counts per minute) of [^3H]-PGD2 binding in presence of excess unlabelled PGD2 from that observed in the absence of excess unlabelled PGD2 is defined as specific binding. Active CRTh2 antagonists are able to compete with [^3H]-PGD2 for binding to the CRTh2 receptor and are identified in a decrease in the number of cpm bound. […]
The plates are incubated at room temperature on a shaker for 1 hour, and then harvested (Tomtec Harvester 9600) onto GF/C filter plates using wash buffer (10 mM HEPES-KOH, pH 7.4). […] Plates are then counted using a Packard Top Count instrument, […]
Ki (dissociation constant for the inhibition) values for the CRTh2 antagonists are reported. Ki values are determined using Sigma Plots software, using the Cheng-Prussoff equation. […]

SMILES	IC50 (human CRTh2 [1]) [nM]	Ki (human CRTh2 [2]) [nM]
N#Cc1cn(CC(=O)O)cc1-c1cc(C(F)(F)F)cc(S(=O)(=O)N2CCN(Cc3ccncc3)CC2)c1 [Example 3, {3-Cyano-4-[3-(4-pyridin-4-ylmethyl-piperazine-1-sulfonyl)-5-trifluoromethyl-phenyl]-pyrrol-1-yl}-acetic acid]	2	17
Cc1ccc(CNS(=O)(=O)c2cc(-c3cn(CC(=O)O)cc3C#N)cc(C(F)(F)F)c2)o1 [Example 8, (3-Cyano-4-{3-[(5-methyl-furan-2-ylmethyl)-sulfamoyl]-5-trifluoromethyl-phenyl}-pyrrol-1-yl)-acetic acid]	5	2
N#Cc1cn(CC(=O)O)cc1-c1cc(Cl)cc(S(=O)(=O)N2CCN(c3ccccc3F)CC2)c1 [Example 9, (3-{3-Chloro-5-[4-(2-fluoro-phenyl)-piperazine-1-sulfonyl]-phenyl}-4-cyano-pyrrol-1-yl)-acetic acid]	26	49
